Experiments:
Format in all cases: cell-based
[1] = biological target: EP2 subtype of the human PGE2 receptor (Homo sapiens, UniProt P43116); test: cAMP antagonism test on the human EP2 receptor (HTRF cAMP detection); details: hEP2 receptor, read-out: Antagonism hEP2 IC50
Method in brief: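 Read-out is a competitive HTRF for cAMP: lysate cAMP displaces cAMP-d2 from Eu cryptate-labelled antibody, and antagonism raises the 665/620 nm ratio. Compound (0.8 nM–16.5 μM) added to EP2 cells 20 min at RT before 60 min PGE2 challenge (3× stock 1.5 nM) with IBMX, followed by 20 min lysis.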

human PGD receptor = biological target: T1, human PGD receptor (Homo sapiens, UniProt Q13258); test: cAMP antagonism test on the human prostaglandin D receptor (HTRF cAMP detection); details: selectivity towards hDP, IC50 measured by cAMP antagonism test
T1 sequence (Q13258 1-359): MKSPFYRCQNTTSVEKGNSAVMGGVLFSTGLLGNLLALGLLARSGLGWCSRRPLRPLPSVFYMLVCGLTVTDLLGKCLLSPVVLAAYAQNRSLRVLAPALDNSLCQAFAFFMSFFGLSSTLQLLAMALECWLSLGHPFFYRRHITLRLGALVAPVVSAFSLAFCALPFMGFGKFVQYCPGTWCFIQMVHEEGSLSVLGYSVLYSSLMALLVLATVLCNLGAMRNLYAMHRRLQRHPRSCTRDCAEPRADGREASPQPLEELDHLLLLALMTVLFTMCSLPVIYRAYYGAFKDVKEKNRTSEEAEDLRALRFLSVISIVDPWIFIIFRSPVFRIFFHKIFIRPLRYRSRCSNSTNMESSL
Method in brief: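 HTRF competition read-out (665/620 nm ratio ×10000), where higher FRET means less cAMP, i.e. antagonism. Compounds (0.8 nM–16.5 μM) were preincubated 20 min at RT with cells and cAMP-d2, PGD2 (3× solution, 6 nM) in IBMX-containing PBS added for 30 min at RT, then cells lysed 20 min.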

[2] = biological target: EP4 subtype of the human PGE2 receptor (Homo sapiens, UniProt P35408); test: cAMP antagonism test on the human EP4 receptor (HTRF cAMP detection); details: selectivity towards hEP4, IC50 measured by cAMP antagonism test
Chain of EP4 subtype of the human PGE2 receptor (P35408 whole entry): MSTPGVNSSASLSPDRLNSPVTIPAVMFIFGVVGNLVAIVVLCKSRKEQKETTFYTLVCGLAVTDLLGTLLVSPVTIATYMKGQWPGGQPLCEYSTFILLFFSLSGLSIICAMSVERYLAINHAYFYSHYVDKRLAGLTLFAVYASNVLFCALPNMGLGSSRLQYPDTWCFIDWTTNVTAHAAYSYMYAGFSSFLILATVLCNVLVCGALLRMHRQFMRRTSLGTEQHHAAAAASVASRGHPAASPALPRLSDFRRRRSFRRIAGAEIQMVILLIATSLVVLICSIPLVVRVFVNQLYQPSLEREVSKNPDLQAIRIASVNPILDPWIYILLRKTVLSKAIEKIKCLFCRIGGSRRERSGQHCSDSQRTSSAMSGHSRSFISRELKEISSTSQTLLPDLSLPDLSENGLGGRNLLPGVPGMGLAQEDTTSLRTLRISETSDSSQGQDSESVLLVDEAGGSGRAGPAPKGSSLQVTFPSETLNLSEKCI
Method in brief: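 Competitive HTRF cAMP read-out (cAMP-d2 vs Eu-cryptate anti-cAMP antibody, 665/620 nm ratio) on lysed human EP4 cells. Compound (0.8 nM–16.5 μM) applied 20 min at RT before 60 min PGE2 challenge (3× solution 0.3 nM, IBMX present); 20 min lysis precedes reading.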

Chain of EP2 subtype of the human PGE2 receptor (P43116 whole entry): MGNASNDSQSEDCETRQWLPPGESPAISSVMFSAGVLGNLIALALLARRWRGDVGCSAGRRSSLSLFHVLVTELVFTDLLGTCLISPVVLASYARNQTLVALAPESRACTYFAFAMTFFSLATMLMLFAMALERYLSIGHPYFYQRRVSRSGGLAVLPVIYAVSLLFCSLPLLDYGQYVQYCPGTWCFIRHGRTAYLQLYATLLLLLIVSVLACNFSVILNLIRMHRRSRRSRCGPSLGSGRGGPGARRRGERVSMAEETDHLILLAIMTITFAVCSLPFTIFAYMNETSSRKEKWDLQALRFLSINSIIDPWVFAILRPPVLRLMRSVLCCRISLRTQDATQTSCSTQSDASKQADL

SMILES	IC50 [1]	Selectivity hEP2/hDP (human PGD receptor)	Selectivity hEP2/hEP4 [2]
Cc1c(C(=O)NCCOCC(F)(F)F)ccc2nn(CC3CCN(C(=O)c4ccc(C(F)(F)F)cc4)CC3)cc12 [Example 93, 4-methyl-N-[2-(2,2,2-trifluoro-ethoxy)ethyl]-2-({1-[4-(trifluoro-methyl)benzoyl]-piperidin-4-yl}-methyl)-2H-indazol-5-carboxamide]	11.5 nM	xxx (xxx > 100)	xxx (xxx > 100)
COCCNC(=O)c1ccc2nn(CC3CN(C(=O)c4cc5ccc(OC)cc5n4C)C3)cc2c1C [Example 173, N-(2-methoxyethyl)-2-({1-[(6-methoxy-1-methyl-1H-indol-2-yl)carbonyl]azetidin-3-yl}methyl)-4-methyl-2H-indazol-5-carboxamide]	2.71 nM	xxx (xxx > 100)	xxx (xxx > 100)
COCCNC(=O)c1ccc2nn(CC3CCN(C(=O)c4ccc(Cl)cc4F)CC3)cc2c1OC [Example 271, 2-{[1-(4-chloro-2-fluorobenzoyl)piperidin-4-yl]methyl}-4-methoxy-N-(2-methoxyethyl)-2H-indazol-5-carboxamide]	33.5 nM	xxx (xxx > 100)	xxx (xxx > 100)
COCCNC(=O)c1ccc2nn(CC3CCN(C(=O)c4cccc(Cl)c4)CC3)cc2c1C [Example 28, 2-{[1-(3-chloro-benzoyl)piperidin-4-yl]methyl}-N-(2-methoxyethyl)-4-methyl-2H-indazol-5-carboxamide]	33.9 nM	xxx (xxx > 100)	xxx (xxx > 100)
COCCNC(=O)c1ccc2nn(CC3CCN(C(=O)c4ccc(-c5ccc(F)cc5Cl)cc4)CC3)cc2c1C [Example 384, 2-({1-[(2′-chloro-4′-fluorobiphenyl-4-yl)carbonyl]piperidin-4-yl}methyl)-N-(2-methoxyethyl)-4-methyl-2H-indazol-5-carboxamide]	3.95 nM	xxx (xxx > 100)	xxx (xxx > 100)
Cc1c(C(=O)NCC(C)(C)C)ccc2nn(CC3CCN(C(=O)c4ccc(Cl)cc4)CC3)cc12 [Example 251, 2-{[1-(4-chlorobenzoyl)piperidin-4-yl]methyl}-N-(2,2-dimethylpropyl)-4-methyl-2H-indazol-5-carboxamide]	3810 nM	x (x: 1-10)	x (x: 1-10)
Cc1c(C(=O)NCCOC(C)(C)C)ccc2nn(CC3CCN(C(=O)c4ccc(Oc5ccc(F)cc5)cc4)CC3)cc12 [Example 112, N-(2-tert-butoxyethyl)-2-({1-[4-(4-fluoro-phenoxy)benzoyl]-piperidin-4-yl}methyl)-4-methyl-2H-indazol-5-carboxamide]	11.9 nM	xxx (xxx > 100)	xxx (xxx > 100)
COCCNC(=O)c1ccc2nn(CC3CCN(C(=O)c4ccc(N5CCCC5)cc4F)CC3)cc2c1C [Example 41, 2-({1-[2-fluoro-4-(pyrrolidin-1-yl)-benzoyl]piperidin-4-yl}methyl)-N-(2-methoxyethyl)-4-methyl-2H-indazol-5-carboxamide]	5.62 nM	xxx (xxx > 100)	xxx (xxx > 100)
Cc1c(C(=O)NCC(F)(F)F)ccc2nn(CC3CCN(C(=O)c4ccc(-c5ccc(C(F)(F)F)nc5)cc4)CC3)cc12 [Example 321, 4-methyl-N-(2,2,2-trifluoroethyl)-2-[(1-{4-[6-(trifluoromethyl)pyridin-3-yl]-benzoyl}piperidin-4-yl)methyl]-2H-indazol-5-carboxamide]	101 nM	xxx (xxx > 100)	xxx (xxx > 100)
COCCNC(=O)c1ccc2nn(CC3CCN(C(=O)c4ccc(OC(F)F)cc4)CC3)cc2c1C [Example 365, 2-({1-[4-(difluoromethoxy)benzoyl]piperidin-4-yl}methyl)-N-(2-methoxyethyl)-4-methyl-2H-indazol-5-carboxamide]	5.3 nM	xxx (xxx > 100)	xxx (xxx > 100)
Cc1cc2nn(CC3CN(C(=O)c4ccc(S(F)(F)(F)(F)F)cc4)C3)cc2cc1C(=O)NCC(F)(F)F [Example 188, 6-methyl-2-({1-[4-(pentafluoro-λ^6-sulphanyl)benzoyl]azetidin-3-yl}methyl)-N-(2,2,2-trifluoroethyl)-2H-indazol-5-carboxamide]	149 nM	xxx (xxx > 100)	xxx (xxx > 100)
COCCNC(=O)c1ccc2nn(CC3CCN(C(=O)c4ccc(-c5ccc(F)cc5)cc4)CC3)cc2c1OC(F)F [Example 227, 4-(difluoromethoxy)-2-({1-[(4′-fluorobiphenyl-4-yl)carbonyl]piperidin-4-yl}methyl)-N-(2-methoxyethyl)-2H-indazol-5-carboxamide]	9.89 nM	xxx (xxx > 100)	xxx (xxx > 100)
Cc1cc2nn(CC3CN(C(=O)c4ccc(Cl)cc4)C3)cc2cc1C(=O)NCCOC(F)(F)F [Example 197, 2-{[1-(4-chlorobenzoyl)azetidin-3-yl]methyl}-6-methyl-N-[2-(trifluoromethoxy)ethyl]-2H-indazol-5-carboxamide]	63.2 nM	xxx (xxx > 100)	xxx (xxx > 100)
Cc1c(C(=O)NCCN2CCOCC2)ccc2nn(CC3CCN(C(=O)c4ccc(S(F)(F)(F)(F)F)cc4)CC3)cc12 [Example 60, 4-methyl-N-(2-morpholinoethyl)-2-({1-[4-(pentafluoro-λ^6-sulphanyl)benzoyl]-piperidin-4-yl}methyl)-2H-indazol-5-carboxamide]	175 nM	xx (xx: 10-100)	xx (xx: 10-100)
Cc1c(C(=O)NCC(F)(F)F)ccc2nn(CC3CCN(C(=O)c4ccc(Oc5cccc(C(F)(F)F)n5)cc4)CC3)cc12 [Example 304, 4-methyl-N-(2,2,2-trifluoroethyl)-2-{[1-(4-{[6-(trifluoromethyl)pyridin-2-yl]-oxy}benzoyl)piperidin-4-yl]methyl}-2H-indazol-5-carboxamide]	99.8 nM	xxx (xxx > 100)	xxx (xxx > 100)
Cc1cc2nn(CC3CN(C(=O)c4ccc(OC(F)(F)F)cc4)C3)cc2cc1C(=O)NCCN1CCOCC1 [Example 279, 6-methyl-N-(2-morpholinoethyl)-2-({1-[4-(trifluoromethoxy)benzoyl]azetidin-3-yl}methyl)-2H-indazol-5-carboxamide]	57.4 nM	xxx (xxx > 100)	xxx (xxx > 100)
COCCNC(=O)c1ccc2nn(CC3CCN(C(=O)c4ccc(-c5ccc(F)cc5)c(C)c4)CC3)cc2c1C [Example 390, 2-({1-[(4′-fluoro-2-methylbiphenyl-4-yl)carbonyl]piperidin-4-yl}methyl)-N-(2-methoxyethyl)-4-methyl-2H-indazol-5-carboxamide]	3.14 nM	xxx (xxx > 100)	xxx (xxx > 100)
COCCNC(=O)c1ccc2nn(CC3CCN(C(=O)c4ccc(-c5ccccc5F)cc4)CC3)cc2c1C [Example 47, 2-({1-[(2′-fluoro-biphenyl-4-yl)-carbonyl]piperidin-4-yl}methyl)-N-(2-methoxyethyl)-4-methyl-2H-indazol-5-carboxamide]	5.61 nM	xxx (xxx > 100)	xxx (xxx > 100)
Cc1c(C(=O)NCC(F)(F)F)ccc2nn(CC3CCN(C(=O)c4cc5ccccc5[nH]4)CC3)cc12 [Example 296, 2-{[1-(1H-Indol-2-ylcarbonyl)piperidin-4-yl]methyl}-4-methyl-N-(2,2,2-trifluoroethyl)-2H-indazol-5-carboxamide]	29.7 nM	xxx (xxx > 100)	xxx (xxx > 100)
